Laboratory results as given in patent US10479780B2, “Aminopyrazole derivatives” (Chugai Seiyaku Kabushiki Kaisha, priority 2015, dated 2019).

Assays:
Type in all cases: biochemical
human Yes1 enzyme = biological target: T1, human Yes1 enzyme (Homo sapiens, UniProt P07947); experiment: Yes1 enzyme inhibitory activity (time-resolved fluorometry, biotinylated peptide phosphorylation); details: biotinylated peptide phosphorylation, read-out: YES_IC50
T1 construct: made in house
Method in brief: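 Inhibition was expressed against a compound-free control to give IC50, using TR-FRET read-out (Eu-cryptate anti-pTyr antibody, streptavidin-XL665).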

human Src enzyme = biological target: T2, human Src enzyme (Homo sapiens, UniProt P12931); experiment: Src enzyme inhibitory activity (time-resolved fluorometry, biotinylated peptide phosphorylation); details: biotinylated peptide phosphorylation, read-out: SRC_IC50
T2 construct: purchased Carna Biosciences, Inc. 08-173
Method in brief: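 Compounds were tested for blocking tyrosine phosphorylation of a biotinylated peptide substrate by recombinant human Src. Phosphorylated product was quantified by time-resolved fluorometry using europium cryptate and XL665 conjugates, and IC50 was calculated against the compound-free control.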

human Lck enzyme = biological target: T3, human Lck enzyme (Homo sapiens, UniProt P06239); experiment: Lck enzyme inhibitory activity (time-resolved fluorometry, biotinylated peptide phosphorylation); details: biotinylated peptide phosphorylation, read-out: LCK_IC50
T3 construct: purchased Carna Biosciences, Inc. 08-170
Method in brief: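 Readout pairs a europium cryptate-labelled anti-phosphotyrosine antibody with XL665-streptavidin, measured by time-resolved fluorescence. IC50 derived from percent inhibition against untreated controls.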

T1 sequence (P07947 whole entry): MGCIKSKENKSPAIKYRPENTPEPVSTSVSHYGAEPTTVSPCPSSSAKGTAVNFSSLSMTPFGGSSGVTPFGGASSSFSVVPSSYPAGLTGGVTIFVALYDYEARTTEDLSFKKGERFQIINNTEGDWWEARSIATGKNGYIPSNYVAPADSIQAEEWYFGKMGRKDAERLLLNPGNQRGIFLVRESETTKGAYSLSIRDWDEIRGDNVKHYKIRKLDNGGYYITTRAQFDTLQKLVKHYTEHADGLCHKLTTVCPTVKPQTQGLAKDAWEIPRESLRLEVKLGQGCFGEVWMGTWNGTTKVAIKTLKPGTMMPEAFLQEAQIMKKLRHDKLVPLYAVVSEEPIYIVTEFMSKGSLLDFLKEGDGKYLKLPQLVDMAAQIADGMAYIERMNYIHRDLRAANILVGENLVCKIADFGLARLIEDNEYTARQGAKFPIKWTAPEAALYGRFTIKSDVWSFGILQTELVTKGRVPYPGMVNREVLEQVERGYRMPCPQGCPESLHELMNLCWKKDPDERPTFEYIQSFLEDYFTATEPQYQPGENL
T3 sequence (P06239 whole entry): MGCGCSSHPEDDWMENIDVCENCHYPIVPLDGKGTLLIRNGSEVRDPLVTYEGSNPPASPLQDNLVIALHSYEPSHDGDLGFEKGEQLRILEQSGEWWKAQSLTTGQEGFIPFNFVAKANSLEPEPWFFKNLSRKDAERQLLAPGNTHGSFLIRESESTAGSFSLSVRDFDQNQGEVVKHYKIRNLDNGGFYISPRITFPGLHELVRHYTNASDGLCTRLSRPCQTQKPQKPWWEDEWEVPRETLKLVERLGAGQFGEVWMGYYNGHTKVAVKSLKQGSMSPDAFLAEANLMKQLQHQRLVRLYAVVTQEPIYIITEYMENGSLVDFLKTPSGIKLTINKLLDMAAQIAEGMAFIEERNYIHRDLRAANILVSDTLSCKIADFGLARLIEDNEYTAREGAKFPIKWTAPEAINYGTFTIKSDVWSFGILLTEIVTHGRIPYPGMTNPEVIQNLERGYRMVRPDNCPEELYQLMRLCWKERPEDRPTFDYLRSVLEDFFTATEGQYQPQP
T2 sequence (P12931 whole entry): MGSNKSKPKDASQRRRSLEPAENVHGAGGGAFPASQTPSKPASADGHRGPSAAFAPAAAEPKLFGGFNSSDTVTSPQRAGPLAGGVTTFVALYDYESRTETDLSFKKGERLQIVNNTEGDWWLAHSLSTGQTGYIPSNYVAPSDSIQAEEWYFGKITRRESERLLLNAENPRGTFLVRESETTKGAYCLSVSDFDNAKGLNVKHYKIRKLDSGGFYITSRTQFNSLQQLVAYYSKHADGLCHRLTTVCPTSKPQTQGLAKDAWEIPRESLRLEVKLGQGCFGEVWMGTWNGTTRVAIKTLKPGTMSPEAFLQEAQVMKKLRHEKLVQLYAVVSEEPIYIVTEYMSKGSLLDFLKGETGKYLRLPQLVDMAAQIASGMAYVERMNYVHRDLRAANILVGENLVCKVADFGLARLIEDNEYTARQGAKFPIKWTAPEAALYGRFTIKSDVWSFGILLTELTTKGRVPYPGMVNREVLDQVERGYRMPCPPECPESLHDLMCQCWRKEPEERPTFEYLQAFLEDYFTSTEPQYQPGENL

Row | SMILES | IC50 (human Yes1 enzyme) | IC50 (human Src enzyme) | IC50 (human Lck enzyme)
1 | Cc1cc(Oc2c(F)cccc2F)ncc1-n1ncc(C(=O)c2cc3cc(OC(F)F)c(C4CCNCC4)cc3[nH]2)c1N [Example 4-4-001, (5-amino-1-(6-(2,6-difluorophenoxy)-4-methylpyridin-3-yl)-1H-pyrazol-4-yl)(5-(difluoromethoxy)-6-(piperidin-4-yl)-1H-indol-2-yl)methanone] | 6.3 nM | 21 nM | 8.2 nM
2 | Cc1cc(Oc2ccccc2F)ncc1-n1ncc(C(=O)c2cc3cc(F)c(NS(=O)(=O)N4CCOCC4)cc3[nH]2)c1N [Example 4-5-001, N-{2-{5-amino-1-[6-(2-fluorophenoxy)-4-methylpyridin-3-yl]pyrazole-4-carbonyl}-5-fluoro-1H-indol-6-yl}morpholine-4-sulfonamide] | 1.2 nM | 120 nM | 33 nM
3 | Cc1cc(Oc2ccccc2F)ccc1-n1ncc(C(=O)c2cc3cc(F)c(NS(=O)(=O)N4CCOCC4)cc3[nH]2)c1N [Example 4-5-002, N-[2-[5-amino-1-[4-(2-fluorophenoxy)-2-methylphenyl]pyrazole-4-carbonyl]-5-fluoro-1H-indol-6-yl]morpholine-4-sulfonamide] | 0.76 nM | 49 nM | 23 nM
4 | Cc1cc(Oc2ccccc2F)ccc1-n1ncc(C(=O)c2cc3cc(F)c(NS(=O)(=O)NC4CCOCC4)cc3[nH]2)c1N [Example 4-5-003, [5-amino-1-[4-(2-fluorophenoxy)-2-methylphenyl]pyrazol-4-yl]-[5-fluoro-6-(oxan-4-ylsulfamoylamino)-1H-indol-2-yl]methanone] | 0.67 nM | 29 nM | 11 nM
5 | Cc1cc(Oc2ccccc2F)ccc1-n1ncc(C(=O)c2cc3cc(F)c(NS(=O)(=O)NC(C)C)cc3[nH]2)c1N [Example 4-5-004, [5-amino-1-[4-(2-fluorophenoxy)-2-methylphenyl]pyrazol-4-yl]-[5-fluoro-6-(propan-2-ylsulfamoylamino)-1H-indol-2-yl]methanone] | 3.3 nM | 65 nM | 41 nM
6 | Cc1cc(Oc2ccccc2F)ccc1-n1ncc(C(=O)c2cc3cc(F)c(NS(=O)(=O)NC4COC4)cc3[nH]2)c1N [Example 4-5-005, [5-amino-1-[4-(2-fluorophenoxy)-2-methylphenyl]pyrazol-4-yl]-[5-fluoro-6-(oxetan-3-ylsulfamoylamino)-1H-indol-2-yl]methanone] | 0.51 nM | 29 nM | 11 nM
7 | Cc1cc(Oc2ccccc2F)ccc1-n1ncc(C(=O)c2cc3cc(F)c(NS(=O)(=O)NC4CCC4)cc3[nH]2)c1N [Example 4-5-006, [5-amino-1-[4-(2-fluorophenoxy)-2-methylphenyl]pyrazol-4-yl]-[6-(cyclobutylsulfamoylamino)-5-fluoro-1H-indol-2-yl]methanone] | 6.8 nM | 140 nM | 62 nM
8 | COCCNS(=O)(=O)Nc1cc2[nH]c(C(=O)c3cnn(-c4ccc(Oc5ccccc5F)cc4C)c3N)cc2cc1F [Example 4-5-007, [5-amino-1-[4-(2-fluorophenoxy)-2-methylphenyl]pyrazol-4-yl]-[5-fluoro-6-(2-methoxyethylsulfamoylamino)-1H-indol-2-yl]methanone] | 0.5 nM | 33 nM | 18 nM
9 | Cc1cc(Oc2ccccc2F)ccc1-n1ncc(C(=O)c2cc3cc(F)c(NS(=O)(=O)NC4(C)COC4)cc3[nH]2)c1N [Example 4-5-008, [5-amino-1-[4-(2-fluorophenoxy)-2-methylphenyl]pyrazol-4-yl]-[5-fluoro-6-[(3-methyloxetan-3-yl)sulfamoylamino]-1H-indol-2-yl]methanone] | 0.55 nM | 31 nM | 8.2 nM
10 | CONS(=O)(=O)Nc1cc2[nH]c(C(=O)c3cnn(-c4ccc(Oc5ccccc5F)cc4C)c3N)cc2cc1F [Example 4-5-009, [5-amino-1-[4-(2-fluorophenoxy)-2-methylphenyl]pyrazol-4-yl]-[5-fluoro-6-(methoxysulfamoylamino)-1H-indol-2-yl]methanone] | 0.68 nM | 35 nM | 12 nM
11 | Cc1cc(Oc2ccccc2F)ccc1-n1ncc(C(=O)c2cc3cc(F)c(NS(=O)(=O)NC4CC4)cc3[nH]2)c1N [Example 4-5-010, [5-amino-1-[4-(2-fluorophenoxy)-2-methylphenyl]pyrazol-4-yl]-[6-(cyclopropylsulfamoylamino)-5-fluoro-1H-indol-2-yl]methanone] | 1.8 nM | 34 nM | 22 nM
12 | Cc1cc(Oc2cccc(F)c2F)cc(F)c1-n1ncc(C(=O)c2cc3cc(F)c(NS(=O)(=O)N4CCOCC4)cc3[nH]2)c1N [Example 4-5-011, N-[2-[5-amino-1-[4-(2,3-difluorophenoxy)-2-fluoro-6-methylphenyl]pyrazole-4-carbonyl]-5-fluoro-1H-indol-6-yl]morpholine-4-sulfonamide] | 1.6 nM | 110 nM | 65 nM
13 | Cc1cc(Oc2ccccc2F)ncc1-n1ncc(C(=O)c2cc3cc(F)c(NS(=O)(=O)NC4CCOCC4)cc3[nH]2)c1N [Example 4-5-012, [5-amino-1-[6-(2-fluorophenoxy)-4-methylpyridin-3-yl]pyrazol-4-yl]-[5-fluoro-6-(oxan-4-ylsulfamoylamino)-1H-indol-2-yl]methanone] | 1 nM | 78 nM | 12 nM
14 | Cc1cc(Oc2ccccc2F)ncc1-n1ncc(C(=O)c2cc3cc(F)c(NS(=O)(=O)NCCO)cc3[nH]2)c1N [Example 4-6-001, {5-amino-1-[6-(2-fluorophenoxy)-4-methylpyridin-3-yl]pyrazol-4-yl}-[5-fluoro-6-(2-hydroxyethylsulfamoylamino)-1H-indol-2-yl]methanone] | 0.92 nM | 70 nM | 13 nM
15 | Cc1cc(Oc2ccccc2F)ccc1-n1ncc(C(=O)c2cc3cc(F)c(NS(=O)(=O)NCCO)cc3[nH]2)c1N [Example 4-6-002, [5-amino-1-[4-(2-fluorophenoxy)-2-methylphenyl]pyrazol-4-yl]-[5-fluoro-6-(2-hydroxyethylsulfamoylamino)-1H-indol-2-yl]methanone] | 0.35 nM | 16 nM | 4.6 nM
16 | Cc1cc(Oc2ccccc2F)ccc1-n1ncc(C(=O)c2cc3cc(F)c(NS(=O)(=O)NC(C)(C)CO)cc3[nH]2)c1N [Example 4-6-003, [5-amino-1-[4-(2-fluorophenoxy)-2-methylphenyl]pyrazol-4-yl]-[5-fluoro-6-[(1-hydroxy-2-methylpropan-2-yl)sulfamoylamino]-1H-indol-2-yl]methanone] | 2.3 nM | 88 nM | 22 nM
17 | Cc1cc(Oc2ccccc2F)ccc1-n1ncc(C(=O)c2cc3cc(F)c(NS(=O)(=O)NCC(C)(C)O)cc3[nH]2)c1N [Example 4-6-004, [5-amino-1-[4-(2-fluorophenoxy)-2-methylphenyl]pyrazol-4-yl]-[5-fluoro-6-[(2-hydroxy-2-methylpropyl)sulfamoylamino]-1H-indol-2-yl]methanone] | 1.1 nM | 41 nM | 6.9 nM
18 | Cc1cc(Oc2ccccc2F)ncc1-n1ncc(C(=O)c2cc3cc(F)c(NS(C)(=O)=O)cc3[nH]2)c1N [Example 4-7-001, N-{2-{5-amino-1-[6-(2-fluorophenoxy)-4-methylpyridin-3-yl]pyrazole-4-carbonyl}-5-fluoro-1H-indol-6-yl}methanesulfonamide] | 2.2 nM | 41 nM | 10 nM
19 | Cc1cc(Oc2ccccc2F)ccc1-n1ncc(C(=O)c2cc3cc(F)c(NS(=O)(=O)CC4COCCO4)cc3[nH]2)c1N (stereo not drawn) [Example 4-7-002, N-[2-[5-amino-1-[4-(2-fluorophenoxy)-2-methylphenyl]pyrazole-4-carbonyl]-5-fluoro-1H-indol-6-yl]-1-(1,4-dioxan-2-yl)methanesulfonamide] | 0.43 nM | 9.5 nM | 9.1 nM
20 | Cc1cc(Oc2ccccc2F)cc(F)c1-n1ncc(C(=O)c2cc3cc(F)c(NS(C)(=O)=O)cc3[nH]2)c1N [Example 4-7-003, N-[2-[5-amino-1-[2-fluoro-4-(2-fluorophenoxy)-6-methylphenyl]pyrazole-4-carbonyl]-5-fluoro-1H-indol-6-yl]methanesulfonamide] | 1 nM | 19 nM | 7.1 nM
21 | Cc1cc(Oc2ccccc2F)cc(F)c1-n1ncc(C(=O)c2cc3cc(F)c(NS(=O)(=O)C4CC4)cc3[nH]2)c1N [Example 4-7-004, N-[2-[5-amino-1-[2-fluoro-4-(2-fluorophenoxy)-6-methylphenyl]pyrazole-4-carbonyl]-5-fluoro-1H-indol-6-yl]cyclopropanesulfonamide] | 4.8 nM | 220 nM | 40 nM
22 | Cc1cc(Oc2cccc(F)c2F)cc(F)c1-n1ncc(C(=O)c2cc3cc(F)c(NS(C)(=O)=O)cc3[nH]2)c1N [Example 4-7-005, N-[2-[5-amino-1-[4-(2,3-difluorophenoxy)-2-fluoro-6-methylphenyl]pyrazole-4-carbonyl]-5-fluoro-1H-indol-6-yl]methanesulfonamide] | 2.8 nM | 160 nM | 45 nM
23 | Cc1cc(Oc2cccc(F)c2F)cc(F)c1-n1ncc(C(=O)c2cc3cc(F)c(NS(=O)(=O)C4CC4)cc3[nH]2)c1N [Example 4-7-006, N-[2-[5-amino-1-[4-(2,3-difluorophenoxy)-2-fluoro-6-methylphenyl]pyrazole-4-carbonyl]-5-fluoro-1H-indol-6-yl]cyclopropanesulfonamide] | 7 nM | 380 nM | 160 nM
